How the values were obtained:
Experiment in all cases: GFP plasmid transfection with DOTMA/DOPE plus plant virus movement protein derived peptides (Example 2)
Assay type in all cases: cell-based
[1] = test system: Human Primary Fibroblast Cells; conditions: 42 hours
Procedure: (§1) Cells were plated to so that on the day of transfection the cells were 70% confluent in 96 well tissue culture plates. A DOMTA/DOPE Lipid solution (1:1 molar ratio) at 2 mg/mL in water were mixed with an equal volume of plant virus movement protein derived peptides that had the nucleic acid binding moiety RRRRRRRRRRRR (SEQ ID NO:109) or KKKKKKKKKKKKKKKK (SEQ ID NO: 102) covalently linked to the N-terminus, or C-terminus of each peptide during peptide synthesis. Peptides were at 2 mg/mL in water. The DOTMA/DOPE and the plant virus movement peptide solution the was diluted 1 to 1 (v/v) in water. DOMTA/DOPE/PEPTIDE solutions were added to 0.1 mL of a plasmid DNA solution (EF1Alpha eGFP plasmid) at 10 μg/mL in OptiMEM.
(§2) All solutions were at room temperature. A volume of 0.2 mL of a 10 μg/mL solution of DNA was aliquoted into each well of a non-tissue cultured treated plate. 1-6 μL of transfection reagents were added to DNA solutions respectively. The transfection reagent and DNA solution was mixed by pipetting up and down twice. Transfection complexes were formed for 10 minutes. After 10 minutes, 0.01 or 0.02 mL of the transfection complex was added to cells. HuVEC, HeLa, human adult keratinocytes, human primary adult fibroblast, and A549 cells all respectively received 0.01 mL of the transfection complex. Human skeletal muscle cells, mouse C2C12 cells, and Jurkat, cells received 0.02 mL of the transfection complex. Cells were incubated for 42 hours at 37° C. at 5% CO2. Plates were read on a fluorescent plate reader. Cells were also examined visually under a microscope to assess the extent of transfection (in terms of the percent of cells transfected) with a fluorescent microscope. Other modes of analysis, for example quantification with B-galactosidase or luciferase reports plasmids can also be used.

[2] = test system: HuVec Cells; conditions: 42 hours
Procedure: as §1, §2

[3] = test system: HeLa Cells; conditions: 1-6 μL of transfection reagents
Procedure: as §1, §2

[4] = value column 1 of 6, head not given, 1 µL transfection reagent
[5] = value column 3 of 6, head not given, 3 µL transfection reagent
[6] = value column 4 of 6, head not given, 4 µL transfection reagent

Substance	Relative Fluorescence of Transfection of Human Primary Fibroblast Cells ([1]; Transfection Agent 1 μl) [Rf]	Relative Fluorescence of Transfection of Human Primary Fibroblast Cells ([1]; Transfection Agent 1.5 μl) [Rf]	Relative Fluorescence of Transfection of Human Primary Fibroblast Cells ([1]; Transfection Agent 2 μl) [Rf]	Relative Fluorescence of Transfection of Human Primary Fibroblast Cells ([1]; Transfection Agent 3 μl) [Rf]	Relative Fluorescence of Transfection of Human Primary Fibroblast Cells ([1]; Transfection Agent 4 μl) [Rf]	Relative Fluorescence of Transfection of Human Primary Fibroblast Cells ([1]; Transfection Agent 6 μl) [Rf]	Relative Fluorescence of Transfection of HuVEC Cells ([2]; Transfection Agent 1 μl) [Rf]	Relative Fluorescence of Transfection of HuVEC Cells ([2]; Transfection Agent 1.5 μl) [Rf]	Relative Fluorescence of Transfection of HuVEC Cells ([2]; Transfection Agent 2 μl)	Relative Fluorescence of Transfection of HuVEC Cells ([2]; Transfection Agent 3 μl) [Rf]	Relative Fluorescence of Transfection of HuVEC Cells ([2]; Transfection Agent 4 μl) [Rf]	Relative Fluorescence of Transfection of HuVEC Cells ([2]; Transfection Agent 6 μl) [Rf]	Relative Fluorescence of Transfection of Hela Cells ([3]; 2 µL transfection reagent)	Relative Fluorescence of Transfection of Hela Cells ([3]; 5 µL transfection reagent)	Relative Fluorescence of Transfection of Hela Cells [3, 4]	Relative Fluorescence of Transfection of Hela Cells [3, 5]	Relative Fluorescence of Transfection of Hela Cells [3, 6]
542 (KKKKKKKKKKKKKKKKGKWERKPIRCAS) [compound 542]	30818	43609	46966	36343	33706	31787	24827	33896	42546 Rf	43231	35294	29326	32901	35631	9010	47293	42152
547 (SYVKTVPNRTRTYIKGGGGGRRRRRRRRRRRR) [compound 547]	29141	33704	35175	35563	33951	30539	24554	26172	28255 Rf	32494	31180	26775	9491	8829	5899	10275	11241
545 (KSVPNRTRTYIKLKRLRFKGAPYKAWRRRRRRRRRRRR) [compound 545]	34309	48184	37497	29067	28928	29256	26545	36649	46890 Rf	34047	30893	27133	28529	13009	11056	28943	14693
109 (RRRRRRRRRRRR) [compound 109]	28368	30373	29858	29895	30941	29386	24603	25735	25421 Rf	26641	26529	25907	5578	8007	4157	6606	8520
541 (RRRRRRRRRRRRGKWERKPIRCAS) [compound 541]	35030	44894	42097	31837	29537	28921	27405	46446	OVER	40401	31568	28125	36476	20473	17145	37105	23644
540 (RRRRRRRRRRRRVDYGKWERKPIRCASMSR) [compound 540]	29368	40610	35505	33853	33063	30219	24771	34062	44744 Rf	44087	45137	30023	35653	13917	6422	27970	18620
